Columns and labels:
melanoma cells = experiment: 51Cr release assay of SLC45A2-specific CD8 T cells against inhibitor-treated melanoma cells; type: cell-based, human; conditions: melanoma cells treated for 48 hours
Procedure: SLC45A2-specific CD8 T cells were assayed for specific lysis of SLC45A2-expressing or not expressing targets using standard 51Chromium (51Cr) release assay. Targets were labeled with 100 uCi of 51Cr for 2 hrs and after three times washing, the labeled targets plated triplicated well at a 2000 targets per well. Effector cells were incubated with targets as various effector:target (E:T) ratio. After 4 hours, 30 ul of supernatant was collected from each well and the 51Cr was measured by a gamma counter. The percentage of specific lysis was calculated.
(§1) Mel526 and A375 (BRAF V600E+) and MeWo (BRAF wild type) were treated with BRAF V600E inhibitor, dabrafenib (50 nM), or MEK inhibitor, Trametinib (50 nM) (GlaxoSmithKline) or both for 48 hours. Untreated melanomas were used as control.
Like other melanocyte differentiation proteins such as MART-1, gp100 and tyrosinase, the SLC45A2 gene is regulated by the MITF transcription factor (J Biol Chem, 2002, 277:402-406, Gen Soci Ame, 2008 178:761-769). MITF protein levels are suppressed by oncogenic BRAF through ERK-mediated phosphorylation and degradation (J Cell Biol, 2005, 170:703-708). […] Melanoma cells were treated with a specific inhibitor of BRAF V600E, dabrafenib (50 nM), or a MEK inhibitor, Trametinib (50 nM), or both for 48 hours and mRNA expression of SLC45A2 and MART-1 was analyzed by RT-PCR. […]

[1] = system: mRNA expression of SLC45A2 and MART-1; experiment: RT-PCR of SLC45A2 and MART-1 mRNA after MAPK pathway inhibitor treatment; type: cell-based, human; conditions: 50 nM, 48 hours
Procedure: Real time PCR was done with primers of SLC45A2, MART-1, gp100, and tyrosinase using power syber green PCR master mix (Applied biosystems life technologies). Values were normalized by the amount of the gene encoding GAPDH.
as §1
Like other melanocyte differentiation proteins such as MART-1, gp100 and tyrosinase, the SLC45A2 gene is regulated by the MITF transcription factor (J Biol Chem, 2002, 277:402-406, Gen Soci Ame, 2008 178:761-769). MITF protein levels are suppressed by oncogenic BRAF through ERK-mediated phosphorylation and degradation (J Cell Biol, 2005, 170:703-708). Thus, it was next investigated whether BRAF or MEK inhibitors can modulate SLC45A2 expression. Melanoma cells were treated with a specific inhibitor of BRAF V600E, dabrafenib (50 nM), or a MEK inhibitor, Trametinib (50 nM), or both for 48 hours and mRNA expression of SLC45A2 and MART-1 was analyzed by RT-PCR. […] To assess the killing effect of SCL45A2-specific CD8 T cells against melanoma cells after treatment with BRAF and MEK inhibitors, a ^51Cr release assay was performed in melanoma cells treated with a BRAF inhibitor, a MEK inhibitor or both for 48 hours.

SMILES	cytotoxicity of SLC45A2-specific CD8 T cells against treated vs untreated melanoma cells (melanoma cells)	mRNA expression of SLC45A2 and MART-1 ([1]; MeWo cells (wild type BRAF))	mRNA expression of SLC45A2 and MART-1 ([1]; Mel526 cells (BRAF V600E))
CC(=O)Nc1cccc(-n2c(=O)n(C3CC3)c(=O)c3c(Nc4ccc(I)cc4F)n(C)c(=O)c(C)c32)c1 [Trametinib]	increased cytotoxicity		
CC(C)(C)c1nc(-c2cccc(NS(=O)(=O)c3c(F)cccc3F)c2F)c(-c2ccnc(N)n2)s1 [dabrafenib]	increased cytotoxicity	did not show an increased expression	significant increase

— patent publication US20210170002A1, “SLC45A2 PEPTIDES FOR IMMUNOTHERAPY” (Board of Regents, The University of Texas System, priority 2015, published 2021)
